# Results: US20250319080A1, “BIO[…] FORMULATIONS AND METHODS OF USE AND MANUFACTURE THEREOF” (PURDUE RESEARCH FOUNDATION, priority 2022, published 2025)
# Test: Solubility of buprenorphine FB in release media
# Format: physicochemical
# Conditions: 48 hours
# Method: The solubility of buprenorphine FB was determined in PBS with 0.05% Tween 20 (PBST) and 0.5% w/v sodium dodecyl sulfate (SDS) in water. The solubility was determined by placing excess buprenorphine FB into the media mentioned above at 37° C. and shaking at 40 RPM for 48 hours. After 48 hours, a sample was taken and centrifuged at 15,000 RPM for 5 minutes. The supernatant was then collected and diluted with the same medium, and the concentration was determined using high-performance liquid chromatography.
compound,measurement,setting,value
"CO[C@@]12CC[C@@]3(C[C@@H]1[C@](C)(O)C(C)(C)C)[C@H]1Cc4ccc(O)c5c4[C@@]3(CCN1CC1CC1)[C@H]2O5 [Buprenorphine FB, Buprenorphine free base]",Solubility in 0.5% SDS,"0.5% w/v sodium dodecyl sulfate in water, 37° C.",336 µg/mL
same,Solubility in PBST,"PBS with 0.05% Tween 20, 37° C.",8.8 µg/mL
